Results on 4 compounds are retold here after US10874743B2, “IRAK degraders and uses thereof” (Kymera Therapeutics, Inc., priority 2017, dated 2020).

This test concerns the target T1, IRAK4 (Homo sapiens, UniProt Q9NWZ3).
T1 sequence (Q9NWZ3 1-460): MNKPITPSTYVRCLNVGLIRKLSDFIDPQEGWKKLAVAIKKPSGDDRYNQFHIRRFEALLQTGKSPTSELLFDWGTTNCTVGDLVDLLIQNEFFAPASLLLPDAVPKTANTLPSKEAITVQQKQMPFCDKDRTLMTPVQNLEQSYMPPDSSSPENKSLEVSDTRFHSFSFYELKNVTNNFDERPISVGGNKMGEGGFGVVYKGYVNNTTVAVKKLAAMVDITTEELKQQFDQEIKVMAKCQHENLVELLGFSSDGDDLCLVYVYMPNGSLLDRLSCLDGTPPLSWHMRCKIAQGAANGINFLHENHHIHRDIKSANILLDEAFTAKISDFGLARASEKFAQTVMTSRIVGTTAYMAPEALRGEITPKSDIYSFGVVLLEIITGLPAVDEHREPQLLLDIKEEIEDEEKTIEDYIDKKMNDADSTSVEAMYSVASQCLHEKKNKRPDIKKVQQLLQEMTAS
In words: OCI-LY-10 degradation assay (western blot, % IRAK4 degraded after 4 hours). It counts as cell-based. Set-up: endogenous in cells; host or cells: OCI-LY10. Particulars: OCI-LY10 cells, 4 hours; for OCI-LY10 % IRAK4 Degradation (0.01 uM): 0.01 uM compound; for OCI-LY10 % IRAK4 Degradation (0.1 uM): 0.1 uM compound; for OCI-LY10 % IRAK4 Degradation (1 uM): 1 uM compound. An outline of the steps:
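OCI-LY10 cells (RPMI-1640, 20% FBS, 55 μM 2-ME) treated with compound at 0.003-10 μM final for 4 h at 37° C, then lysed in RIPA buffer. IRAK4 level read by fluorescent western blot (20-25 μg protein) and binned as % degraded: A >50%, B >20-50%, C <20%.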
On the technique in general: Immunoblotting shows a protein as a band on a membrane.

For `CC[C@@H]1[C@H](F)C(=O)N[C@@H]1COc1ncc(C#Cc2ccc(OCCOCCOCCOCCNc3cccc4c3C(=O)N(C3CCC(=O)NC3=O)C4=O)cc2)c2cc(C(N)=O)c(OC)cc12` (stereo partly drawn) [I-425, 4-[2-[4-[2-[2-[2-[2-[[2-(2,6-Dioxo-3-piperidyl)-1,3-dioxo-isoindolin-4-yl]amino]ethoxy]ethoxy]ethoxy]ethoxy]phenyl]ethynyl]-1-[[(2S,3S,4S)-3-ethyl-4-fluoro-5-oxo-pyrrolidin-2-yl]methoxy]-7-methoxy-isoquinoline-6-carboxamide], the “OCI-LY10 % IRAK4 Degradation (0.01 uM)” value is recorded as “B (>20-50% degradation)”, the “OCI-LY10 % IRAK4 Degradation (0.1 uM)” value is on record as “A (>50% degradation)” and the “OCI-LY10 % IRAK4 Degradation (1 uM)” value is reported as “A (>50% degradation)”.
Consider `O=C1CCC(N2C(=O)c3cccc(NCCOCCOCCN4Cc5ccc(-n6cc(NC(=O)c7coc(-c8ccnc(NCC9CC9)c8)n7)c(C(F)(F)F)n6)cc5C4)c3C2=O)C(=O)N1` (stereo not drawn) [I-426, 2-[2-(Cyclopropylmethylamino)-4-pyridyl]-N-[1-[2-[2-[2-[2-[[2-(2,6-dioxo-3-piperidyl)-1,3-dioxo-isoindolin-4-yl]amino]ethoxy]ethoxy]ethyl]isoindolin-5-yl]-3-(trifluoromethyl)pyrazol-4-yl]oxazole-4-carboxamide], for which the “OCI-LY10 % IRAK4 Degradation (0.01 uM)” value was “C (<20% degradation)”, the “OCI-LY10 % IRAK4 Degradation (0.1 uM)” value is recorded as “C (<20% degradation)” and the “OCI-LY10 % IRAK4 Degradation (1 uM)” value is listed as “C (<20% degradation)”.
As to `NC(=O)c1nn(CC#CC#CCOCCOCCNc2cccc3c2C(=O)N(C2CCC(=O)NC2=O)C3=O)cc1NC(=O)c1coc(-c2ccnc(NCC3CC3)c2)n1` (stereo not drawn) [I-434, N-[3-carbamoyl-1-[6-[2-[2-[[2-(2,6-dioxo-3-piperidyl)-1,3-dioxo-isoindolin-4-yl]amino]ethoxy]ethoxy]hexa-2,4-diynyl]pyrazol-4-yl]-2-[2-(cyclopropylmethylamino)-4-pyridyl]oxazole-4-carboxamide], the “OCI-LY10 % IRAK4 Degradation (0.01 uM)” value is listed as “C (<20% degradation)”, the “OCI-LY10 % IRAK4 Degradation (0.1 uM)” value is listed as “C (<20% degradation)” and the “OCI-LY10 % IRAK4 Degradation (1 uM)” value is recorded as “C (<20% degradation)”.
For `NC(=O)c1nn(CCCCCCOCCOCCNc2cccc3c2C(=O)N(C2CCC(=O)NC2=O)C3=O)cc1NC(=O)c1coc(-c2ccnc(NCC3CC3)c2)n1` (stereo not drawn) [I-435, N-[3-carbamoyl-1-[6-[2-[2-[[2-(2,6-dioxo-3-piperidyl)-1,3-dioxo-isoindolin-4-yl]amino]ethoxy]ethoxy]hexyl]pyrazol-4-yl]-2-[2-(cyclopropylmethylamino)-4-pyridyl]oxazole-4-carboxamide], the “OCI-LY10 % IRAK4 Degradation (0.01 uM)” value is “C (<20% degradation)”, the “OCI-LY10 % IRAK4 Degradation (0.1 uM)” value is recorded as “C (<20% degradation)” and the “OCI-LY10 % IRAK4 Degradation (1 uM)” value was “C (<20% degradation)”.
